Data published in PubChem BioAssay (NCI).
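48-hour exposure; five concentrations; linearly interpolated endpoints. The concentration for full growth arrest is given as TGI.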

Experiments:
Assay in all cases: NCI-60 cell line screen, 48 h
HOP-92 NSCLC = tested on: HOP-92 NSCLC
SK-OV-3 ovarian = tested on: SK-OV-3 ovarian
MALME-3M melanoma = tested on: MALME-3M melanoma
NCI-H522 lung = tested on: NCI-H522 lung
M14 melanoma = tested on: M14 melanoma
MDA-MB-435 = tested on: MDA-MB-435
BT-549 breast = tested on: BT-549 breast
HOP-62 NSCLC = tested on: HOP-62 NSCLC
T-47D breast = tested on: T-47D breast
HCT-116 colon = tested on: HCT-116 colon
DU-145 prostate = tested on: DU-145 prostate
SF-295 CNS = tested on: SF-295 CNS
ACHN renal = tested on: ACHN renal
MDA-MB-231 breast = tested on: MDA-MB-231 breast
SN12C renal = tested on: SN12C renal
MDA-N = tested on: MDA-N
TK-10 renal = tested on: TK-10 renal
OVCAR-3 ovarian = tested on: OVCAR-3 ovarian
786-0 renal = tested on: 786-0 renal
OVCAR-5 ovarian = tested on: OVCAR-5 ovarian
KM12 colon = tested on: KM12 colon
RPMI-8226 leukemia = tested on: RPMI-8226 leukemia
NCI-H226 lung = tested on: NCI-H226 lung
CAKI-1 renal = tested on: CAKI-1 renal
OVCAR-8 ovarian = tested on: OVCAR-8 ovarian
HT29 colon = tested on: HT29 colon
HCC-2998 colon = tested on: HCC-2998 colon
SF-539 CNS = tested on: SF-539 CNS
PC-3 prostate = tested on: PC-3 prostate
NCI-H460 lung = tested on: NCI-H460 lung
A549 NSCLC = tested on: A549 NSCLC
SNB-75 CNS = tested on: SNB-75 CNS
SW-620 colon = tested on: SW-620 colon
OVCAR-4 ovarian = tested on: OVCAR-4 ovarian
MOLT-4 leukemia = tested on: MOLT-4 leukemia
SK-MEL-5 melanoma = tested on: SK-MEL-5 melanoma
SK-MEL-2 melanoma = tested on: SK-MEL-2 melanoma
SNB-19 CNS = tested on: SNB-19 CNS
SK-MEL-28 melanoma = tested on: SK-MEL-28 melanoma
CCRF-CEM leukemia = tested on: CCRF-CEM leukemia
COLO 205 colon = tested on: COLO 205 colon
U251 CNS = tested on: U251 CNS
SF-268 CNS = tested on: SF-268 CNS
UACC-62 melanoma = tested on: UACC-62 melanoma
UACC-257 melanoma = tested on: UACC-257 melanoma
MCF7 breast = tested on: MCF7 breast
NCI/ADR-RES ovarian = tested on: NCI/ADR-RES ovarian
IGROV1 ovarian = tested on: IGROV1 ovarian
EKVX NSCLC = tested on: EKVX NSCLC
NCI-H23 lung = tested on: NCI-H23 lung
UO-31 renal = tested on: UO-31 renal
SR leukemia = tested on: SR leukemia
K-562 leukemia = tested on: K-562 leukemia
RXF 393 renal = tested on: RXF 393 renal
LOX IMVI melanoma = tested on: LOX IMVI melanoma
HCT-15 colon = tested on: HCT-15 colon
A498 renal = tested on: A498 renal
HL-60(TB) leukemia = tested on: HL-60(TB) leukemia

**Q.** With `CNC(=O)N(CCC#N)CCN(C(=O)NC)c1ccccc1` as the compound, how does the TGI (HOP-92 NSCLC) read?
**A.** > 100 µM

**Q.** And the TGI (SK-OV-3 ovarian)?
**A.** > 100 µM

**Q.** And the TGI (MALME-3M melanoma)?
**A.** > 100 µM

**Q.** And the TGI (NCI-H522 lung)?
**A.** > 100 µM

**Q.** What about the TGI (M14 melanoma) of the same compound?
**A.** > 100 µM

**Q.** And the TGI (MDA-MB-435)?
**A.** > 100 µM

**Q.** And the TGI (BT-549 breast)?
**A.** > 100 µM

**Q.** What about the TGI (HOP-62 NSCLC) of the same compound?
**A.** > 100 µM

**Q.** What about the TGI (T-47D breast) of the same compound?
**A.** > 100 µM

**Q.** And the TGI (HCT-116 colon)?
**A.** > 100 µM

**Q.** And the TGI (DU-145 prostate)?
**A.** > 100 µM

**Q.** And the TGI (SF-295 CNS)?
**A.** > 100 µM

**Q.** What about the TGI (ACHN renal) of the same compound?
**A.** > 100 µM

**Q.** What about the TGI (MDA-MB-231 breast) of the same compound?
**A.** > 100 µM

**Q.** What about the TGI (SN12C renal) of the same compound?
**A.** > 100 µM

**Q.** And the TGI (MDA-N)?
**A.** > 100 µM

**Q.** And the TGI (TK-10 renal)?
**A.** > 100 µM

**Q.** What about the TGI (OVCAR-3 ovarian) of the same compound?
**A.** > 100 µM

**Q.** And the TGI (786-0 renal)?
**A.** > 100 µM

**Q.** What about the TGI (OVCAR-5 ovarian) of the same compound?
**A.** > 100 µM

**Q.** And the TGI (KM12 colon)?
**A.** > 100 µM

**Q.** And the TGI (RPMI-8226 leukemia)?
**A.** > 100 µM

**Q.** And the TGI (NCI-H226 lung)?
**A.** > 100 µM

**Q.** What about the TGI (CAKI-1 renal) of the same compound?
**A.** > 100 µM

**Q.** What about the TGI (OVCAR-8 ovarian) of the same compound?
**A.** > 100 µM

**Q.** What about the TGI (HT29 colon) of the same compound?
**A.** > 100 µM

**Q.** And the TGI (HCC-2998 colon)?
**A.** > 100 µM

**Q.** What about the TGI (SF-539 CNS) of the same compound?
**A.** > 100 µM

**Q.** And the TGI (PC-3 prostate)?
**A.** > 100 µM

**Q.** And the TGI (NCI-H460 lung)?
**A.** > 100 µM

**Q.** And the TGI (A549 NSCLC)?
**A.** > 100 µM

**Q.** And the TGI (SNB-75 CNS)?
**A.** > 100 µM

**Q.** And the TGI (SW-620 colon)?
**A.** > 100 µM

**Q.** And the TGI (OVCAR-4 ovarian)?
**A.** > 100 µM

**Q.** And the TGI (MOLT-4 leukemia)?
**A.** > 100 µM

**Q.** What about the TGI (SK-MEL-5 melanoma) of the same compound?
**A.** > 100 µM

**Q.** What about the TGI (SK-MEL-2 melanoma) of the same compound?
**A.** > 100 µM

**Q.** What about the TGI (SNB-19 CNS) of the same compound?
**A.** > 100 µM

**Q.** And the TGI (SK-MEL-28 melanoma)?
**A.** > 100 µM

**Q.** What about the TGI (CCRF-CEM leukemia) of the same compound?
**A.** > 100 µM

**Q.** What about the TGI (COLO 205 colon) of the same compound?
**A.** > 100 µM

**Q.** And the TGI (U251 CNS)?
**A.** > 100 µM

**Q.** What about the TGI (SF-268 CNS) of the same compound?
**A.** > 100 µM

**Q.** And the TGI (UACC-62 melanoma)?
**A.** > 100 µM

**Q.** What about the TGI (UACC-257 melanoma) of the same compound?
**A.** > 100 µM

**Q.** What about the TGI (MCF7 breast) of the same compound?
**A.** > 100 µM

**Q.** And the TGI (NCI/ADR-RES ovarian)?
**A.** > 100 µM

**Q.** And the TGI (IGROV1 ovarian)?
**A.** > 100 µM

**Q.** And the TGI (EKVX NSCLC)?
**A.** > 100 µM

**Q.** And the TGI (NCI-H23 lung)?
**A.** > 100 µM

**Q.** What about the TGI (UO-31 renal) of the same compound?
**A.** > 100 µM

**Q.** What about the TGI (SR leukemia) of the same compound?
**A.** > 100 µM

**Q.** And the TGI (K-562 leukemia)?
**A.** > 100 µM

**Q.** What about the TGI (RXF 393 renal) of the same compound?
**A.** > 100 µM

**Q.** And the TGI (LOX IMVI melanoma)?
**A.** > 100 µM

**Q.** What about the TGI (HCT-15 colon) of the same compound?
**A.** > 100 µM

**Q.** And the TGI (A498 renal)?
**A.** > 100 µM

**Q.** With `Cc1ccccc1NC(=O)Cc1csc(N/N=C2\NC(=O)/C(=C/c3cccc([N+](=O)[O-])c3)S2)n1` as the compound, how does the TGI (HOP-92 NSCLC) read?
**A.** 38.1 µM

**Q.** What about the TGI (SK-OV-3 ovarian) of the same compound?
**A.** 74.6 µM

**Q.** What about the TGI (M14 melanoma) of the same compound?
**A.** 31.3 µM

**Q.** And the TGI (MDA-MB-435)?
**A.** 39.5 µM

**Q.** What about the TGI (HOP-62 NSCLC) of the same compound?
**A.** 92.5 µM

**Q.** And the TGI (T-47D breast)?
**A.** 55.1 µM

**Q.** What about the TGI (HCT-116 colon) of the same compound?
**A.** > 100 µM

**Q.** And the TGI (DU-145 prostate)?
**A.** > 100 µM

**Q.** And the TGI (SF-295 CNS)?
**A.** 41.8 µM

**Q.** And the TGI (ACHN renal)?
**A.** 28.9 µM

**Q.** And the TGI (MDA-MB-231 breast)?
**A.** 57.3 µM

**Q.** And the TGI (SN12C renal)?
**A.** > 100 µM

**Q.** And the TGI (MDA-N)?
**A.** > 100 µM

**Q.** What about the TGI (TK-10 renal) of the same compound?
**A.** 36.9 µM

**Q.** What about the TGI (OVCAR-3 ovarian) of the same compound?
**A.** 52.3 µM

**Q.** What about the TGI (786-0 renal) of the same compound?
**A.** > 100 µM

**Q.** And the TGI (OVCAR-5 ovarian)?
**A.** 45.8 µM

**Q.** What about the TGI (KM12 colon) of the same compound?
**A.** 34.2 µM

**Q.** And the TGI (NCI-H226 lung)?
**A.** 39.1 µM

**Q.** And the TGI (CAKI-1 renal)?
**A.** 35.7 µM

**Q.** And the TGI (OVCAR-8 ovarian)?
**A.** > 100 µM

**Q.** And the TGI (HT29 colon)?
**A.** > 100 µM

**Q.** And the TGI (HCC-2998 colon)?
**A.** 27.3 µM

**Q.** What about the TGI (SF-539 CNS) of the same compound?
**A.** 33.4 µM

**Q.** And the TGI (PC-3 prostate)?
**A.** 33.5 µM

**Q.** And the TGI (HL-60(TB) leukemia)?
**A.** 39.5 µM

**Q.** And the TGI (NCI-H460 lung)?
**A.** 29 µM

**Q.** And the TGI (A549 NSCLC)?
**A.** 44.5 µM

**Q.** And the TGI (SNB-75 CNS)?
**A.** 34 µM

**Q.** What about the TGI (SW-620 colon) of the same compound?
**A.** > 100 µM

**Q.** What about the TGI (OVCAR-4 ovarian) of the same compound?
**A.** 44.2 µM

**Q.** And the TGI (MOLT-4 leukemia)?
**A.** > 100 µM

**Q.** And the TGI (SK-MEL-5 melanoma)?
**A.** 64.8 µM

**Q.** What about the TGI (SK-MEL-2 melanoma) of the same compound?
**A.** 71.1 µM

**Q.** What about the TGI (SNB-19 CNS) of the same compound?
**A.** 34 µM

**Q.** And the TGI (SK-MEL-28 melanoma)?
**A.** 55.3 µM

**Q.** What about the TGI (COLO 205 colon) of the same compound?
**A.** > 100 µM

**Q.** What about the TGI (U251 CNS) of the same compound?
**A.** 53.8 µM

**Q.** And the TGI (UACC-257 melanoma)?
**A.** 41.9 µM

**Q.** What about the TGI (MCF7 breast) of the same compound?
**A.** > 100 µM

**Q.** What about the TGI (NCI/ADR-RES ovarian) of the same compound?
**A.** > 100 µM

**Q.** And the TGI (IGROV1 ovarian)?
**A.** 34.3 µM

**Q.** And the TGI (EKVX NSCLC)?
**A.** 32.8 µM

**Q.** And the TGI (NCI-H23 lung)?
**A.** 42.7 µM

**Q.** What about the TGI (UO-31 renal) of the same compound?
**A.** 25.8 µM

**Q.** What about the TGI (LOX IMVI melanoma) of the same compound?
**A.** > 100 µM

**Q.** What about the TGI (HCT-15 colon) of the same compound?
**A.** 29.3 µM
